{"source": "the OPERA property sets (Mansouri et al. 2018)"}
{"conditions": "not given", "units": {"solubility": "mM"}}
{"compound": "CN1C(=O)C(N)C(=S)N(C)C1=O", "note": "(centres undefined)", "solubility": 76.4}
{"compound": "C[Si](C)(C)CN", "solubility": 17.3}
{"compound": "CCN(CC)CN(CC)CC", "solubility": 632}
{"compound": "C=CCOC(CO)CO", "solubility": 3030}
{"compound": "O=C(O)CC1(CC(=O)O)OCOC1=O", "solubility": 245}
{"compound": "O=C1CN(CO)C(=O)CN1CO", "solubility": 383}
{"compound": "CC(NC(=O)C=CC(=O)O)C(=O)O", "note": "(centres undefined)", "solubility": 107}
{"compound": "O=P(O)(O)c1cccc2ccccc12", "solubility": 24}
{"compound": "CCCCOC(=O)CCO", "solubility": 51.3}
{"compound": "NNC(=O)c1nccs1", "solubility": 210}
{"compound": "CCS(=O)(=O)CCSP(=S)(OC)OC", "solubility": 2.87}
{"compound": "CC(C)C(Br)C(=O)N[C@@H](C)C(=O)O", "note": "(mixture of isomers)", "solubility": 329}
{"compound": "CCOC(C)C(=O)C=O", "note": "(centres undefined)", "solubility": 699}
{"compound": "COC(=O)CCCCCCCCC(=O)OC", "solubility": 0.521}
{"compound": "O=C(O)C1(O)CCCCC1", "solubility": 465}
{"compound": "COc1ccc(OC)c([N+](=O)[O-])c1", "solubility": 0.764}
{"compound": "CCC(NC(=N)N)C(=O)O", "note": "(centres undefined)", "solubility": 138}
{"compound": "CCCOCC(O)COCCC", "solubility": 454}
{"compound": "CN(C)CCCCl", "solubility": 633}
{"compound": "CCCCOCCOCCOC(N)=O", "solubility": 487}
{"compound": "O=S(=O)(O)c1ccc(/N=N/c2c(O)ccc3ccccc23)c2ccccc12", "solubility": 68.7}
{"compound": "NC(=O)C=Cc1ccccc1[N+](=O)[O-]", "solubility": 52}
{"compound": "COC1CCCC(C)O1", "note": "(centres undefined)", "solubility": 256}
{"compound": "Cn1c(C(N)=O)c(C(N)=O)c2ccccc21", "solubility": 15.2}
{"compound": "CC(C)C1OCCO1", "solubility": 861}
{"compound": "COC(/C=C/C(OC)OC)OC", "solubility": 1140}
{"compound": "CCCCOCCOC(N)=O", "solubility": 310}
{"compound": "Nc1ccc2snnc2c1", "solubility": 49.6}
{"compound": "CC(C)SS(=O)C(C)C", "note": "(centres undefined)", "solubility": 150}
{"compound": "COc1ccc(NC(=N)Nc2ccc(OC)cc2)cc1", "solubility": 1.84}
{"compound": "O=C(O)C1=CCCc2ccccc21", "solubility": 1.61}
{"compound": "CCOCCOC(=O)CCCCC(=O)OCCOCC", "solubility": 8.61}
{"compound": "O=C(c1cccc2ccccc12)N(O)c1ccccc1", "solubility": 0.114}
{"compound": "CCOC(=O)N(C)CC", "solubility": 381}
{"compound": "O=C(OCCCO)c1ccccc1", "solubility": 55.5}
{"compound": "CC(C)CC1OCCO1", "solubility": 427}
{"compound": "N#CC1CCCC1=O", "note": "(centres undefined)", "solubility": 440}
{"conditions": "20 °C", "units": {"solubility": "mM"}}
{"compound": "Ic1ccc2c(c1)Sc1ccccc1N2", "solubility": 0.000118}
{"compound": "CC(=O)Nc1ccc(Cl)cc1C", "solubility": 4.9}
{"compound": "CCCCC(CCC(=O)O)CC(=O)O", "note": "(centres undefined)", "solubility": 40}
{"compound": "CCC(C#N)(CC)C(=O)NC(N)=O", "solubility": 27.3}
{"compound": "OCc1cccc(O)c1", "solubility": 540}
{"compound": "CC(C)COC(=O)c1c(C(=O)O)cccc1[N+](=O)[O-]", "solubility": 0.898}
{"compound": "CCC(=O)OCc1ccc(Cl)cc1Cl", "solubility": 0.858}
{"compound": "Cc1ccc(P(=O)(O)O)c(C)c1", "solubility": 80.6}
{"compound": "CC(C)c1nnc(NS(=O)(=O)c2ccc(N)cc2)s1", "solubility": 0.385}
{"compound": "Cn1c(=O)c2nccnc2n(C)c1=O", "solubility": 34.7}
{"compound": "O=C(O)CC(SC(CC(=O)O)C(=O)O)C(=O)O", "note": "(centres undefined)", "solubility": 323}
{"compound": "c1ccc2c(c1)Nc1ccc3ccccc3c1S2", "solubility": 0.000267}
{"compound": "O=c1[nH]c2cncnc2[nH]1", "solubility": 30.6}
{"compound": "CN(C)c1ncc2nccnc2n1", "solubility": 2280}
{"compound": "O=C(O)c1ccccc1CO", "solubility": 28.1}
{"compound": "O=C(O)c1oc(Cl)c(Cl)c1Cl", "solubility": 6.04}
{"compound": "O=C(O)c1c(Cl)c(Cl)c(Cl)c(Cl)c1C(=O)O", "solubility": 11.8}
{"compound": "CCOc1ccc(NC(C)=O)c2cccnc12", "solubility": 30.4}
{"compound": "CSc1cc(O)cc(O)c1", "solubility": 16}
{"compound": "O=C(O)c1occ(Br)c1Br", "solubility": 8.15}
{"compound": "CC(NC(N)=O)C(=O)O", "note": "(centres undefined)", "solubility": 133}
{"compound": "O=C(O)c1cc(Br)co1", "solubility": 65.4}
{"compound": "O=C(O)c1c(Cl)ccc2ccccc12", "solubility": 4.84}
{"compound": "CC[C@@H]1C(=O)O[C@H]1C", "solubility": 216}
{"compound": "C[C@H](NC=O)C(=O)O", "note": "(racemic)", "solubility": 1020}
{"compound": "CC(=O)C1CC(CC(=O)O)C1(C)C", "note": "(centres undefined)", "solubility": 266}
{"compound": "Cn1cc2nccnc2nc1=O", "solubility": 123}
{"compound": "CCOC(=O)c1[nH]c(C=O)c(CC)c1C", "solubility": 1.91}
{"compound": "CCCc1nnc(NS(=O)(=O)c2ccc(N)cc2)s1", "solubility": 0.493}
{"compound": "O=C(O)C(O)C(O)c1ccccc1", "note": "(centres undefined)", "solubility": 494}
{"compound": "O=CCCCCCCCC(=O)O", "solubility": 110}
{"compound": "Cc1ccc(O)c(CO)c1", "solubility": 485}
{"compound": "Cc1ccc(C(=O)O)o1", "solubility": 150}
{"compound": "OCc1cc(Cl)c(Cl)c(Cl)c1", "solubility": 0.804}
{"compound": "Cc1nc2c(=O)[nH]c(=O)n(C)c2nc1C", "solubility": 7.71}
{"compound": "FC(F)(F)c1nc2ncncc2[nH]1", "solubility": 354}
{"compound": "Nc1ccncc1", "solubility": 885}
{"compound": "COc1cc(C(C)=O)ccc1O", "solubility": 30.1}
{"compound": "Clc1ncc2nccnc2n1", "solubility": 200}
{"compound": "NC(N)=N/C(N)=N/c1cccc2ccccc12", "solubility": 4.84}
{"compound": "CC(O)C(C)Cl", "note": "(centres undefined)", "solubility": 613}
{"compound": "O=C(O)c1occ(Cl)c1Cl", "solubility": 14.9}
{"compound": "CC(C)(NC(N)=O)C(=O)O", "solubility": 68.4}
{"compound": "CCCC(O)(CCC)C(O)c1ccccc1", "note": "(centres undefined)", "solubility": 2.25}
{"compound": "CCOC(=O)c1[nH]c(C)cc1C", "solubility": 2.39}
{"compound": "OCc1ccc(Br)cc1", "solubility": 11.8}
{"compound": "NC[C@H](O)C(=O)O", "solubility": 148}
